Key:
Assay in all cases: biochemical
D2S(h) = target: T1, D2S(h) (Homo sapiens, UniProt P14416); design: Eurofins SafetyScreen44 radioligand displacement, inhibition of control specific binding; conditions: read-out: % Inhibition of Control Specific Binding, Mean
T1 construct: gene DRD2; short isoform D2S

[1] = target: T2, MAO-A (antagonist radioligand) (Rattus norvegicus, UniProt P21396); conditions: read-out: % Inhibition of Control Specific Binding Mean
T2 construct: gene Maoa

[2] = target: AR(h) (agonist radioligand) (Homo sapiens, UniProt P10275); conditions: read-out: % Inhibition of Control Specific Binding Mean
5-HT2B(h) = target: T3, 5-HT2B(h) (Homo sapiens, UniProt P41595); design: Eurofins SafetyScreen44 radioligand displacement, inhibition of control specific binding; conditions: read-out: % Inhibition of Control Specific Binding, Mean
T3 construct: gene HTR2B
T3 sequence (P41595 whole entry): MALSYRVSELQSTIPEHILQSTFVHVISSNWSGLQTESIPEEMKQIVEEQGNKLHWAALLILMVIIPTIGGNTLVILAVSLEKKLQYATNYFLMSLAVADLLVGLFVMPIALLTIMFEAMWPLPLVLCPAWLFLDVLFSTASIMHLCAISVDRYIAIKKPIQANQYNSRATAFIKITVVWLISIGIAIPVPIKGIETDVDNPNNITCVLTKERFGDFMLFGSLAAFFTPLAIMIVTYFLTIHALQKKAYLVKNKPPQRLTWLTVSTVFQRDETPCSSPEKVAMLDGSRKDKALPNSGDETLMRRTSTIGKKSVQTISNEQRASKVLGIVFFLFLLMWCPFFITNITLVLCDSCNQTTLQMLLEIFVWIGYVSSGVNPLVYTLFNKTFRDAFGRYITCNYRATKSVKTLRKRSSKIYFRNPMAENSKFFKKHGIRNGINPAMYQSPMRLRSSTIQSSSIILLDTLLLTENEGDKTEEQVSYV

T2 sequence (P21396 whole entry): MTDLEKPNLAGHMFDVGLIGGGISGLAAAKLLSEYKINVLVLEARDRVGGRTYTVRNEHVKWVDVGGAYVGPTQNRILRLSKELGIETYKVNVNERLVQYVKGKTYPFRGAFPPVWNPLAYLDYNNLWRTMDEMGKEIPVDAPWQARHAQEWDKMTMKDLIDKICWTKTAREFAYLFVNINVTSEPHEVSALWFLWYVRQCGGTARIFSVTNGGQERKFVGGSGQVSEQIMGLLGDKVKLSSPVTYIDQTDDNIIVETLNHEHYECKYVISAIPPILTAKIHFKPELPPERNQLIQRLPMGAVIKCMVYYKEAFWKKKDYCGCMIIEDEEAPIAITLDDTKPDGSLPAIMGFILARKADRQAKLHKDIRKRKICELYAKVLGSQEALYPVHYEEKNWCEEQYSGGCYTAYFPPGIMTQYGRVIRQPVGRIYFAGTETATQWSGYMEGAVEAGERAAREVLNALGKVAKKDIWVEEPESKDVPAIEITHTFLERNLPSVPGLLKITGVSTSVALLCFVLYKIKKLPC
T1 sequence (P14416 whole entry, canonical isoform): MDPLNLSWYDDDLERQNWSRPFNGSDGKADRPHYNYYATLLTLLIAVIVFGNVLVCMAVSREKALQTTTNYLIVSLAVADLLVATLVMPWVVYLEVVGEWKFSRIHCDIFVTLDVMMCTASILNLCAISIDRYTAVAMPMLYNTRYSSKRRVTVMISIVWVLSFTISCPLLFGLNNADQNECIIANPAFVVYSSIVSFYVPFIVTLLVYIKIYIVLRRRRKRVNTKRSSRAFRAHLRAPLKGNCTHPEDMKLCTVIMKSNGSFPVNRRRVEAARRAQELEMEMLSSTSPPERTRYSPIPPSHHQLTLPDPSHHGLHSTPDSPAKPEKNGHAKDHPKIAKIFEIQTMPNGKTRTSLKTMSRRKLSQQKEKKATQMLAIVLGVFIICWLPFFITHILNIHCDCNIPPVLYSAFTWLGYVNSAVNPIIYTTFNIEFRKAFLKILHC
Chain of AR(h) (agonist radioligand) (P10275 whole entry): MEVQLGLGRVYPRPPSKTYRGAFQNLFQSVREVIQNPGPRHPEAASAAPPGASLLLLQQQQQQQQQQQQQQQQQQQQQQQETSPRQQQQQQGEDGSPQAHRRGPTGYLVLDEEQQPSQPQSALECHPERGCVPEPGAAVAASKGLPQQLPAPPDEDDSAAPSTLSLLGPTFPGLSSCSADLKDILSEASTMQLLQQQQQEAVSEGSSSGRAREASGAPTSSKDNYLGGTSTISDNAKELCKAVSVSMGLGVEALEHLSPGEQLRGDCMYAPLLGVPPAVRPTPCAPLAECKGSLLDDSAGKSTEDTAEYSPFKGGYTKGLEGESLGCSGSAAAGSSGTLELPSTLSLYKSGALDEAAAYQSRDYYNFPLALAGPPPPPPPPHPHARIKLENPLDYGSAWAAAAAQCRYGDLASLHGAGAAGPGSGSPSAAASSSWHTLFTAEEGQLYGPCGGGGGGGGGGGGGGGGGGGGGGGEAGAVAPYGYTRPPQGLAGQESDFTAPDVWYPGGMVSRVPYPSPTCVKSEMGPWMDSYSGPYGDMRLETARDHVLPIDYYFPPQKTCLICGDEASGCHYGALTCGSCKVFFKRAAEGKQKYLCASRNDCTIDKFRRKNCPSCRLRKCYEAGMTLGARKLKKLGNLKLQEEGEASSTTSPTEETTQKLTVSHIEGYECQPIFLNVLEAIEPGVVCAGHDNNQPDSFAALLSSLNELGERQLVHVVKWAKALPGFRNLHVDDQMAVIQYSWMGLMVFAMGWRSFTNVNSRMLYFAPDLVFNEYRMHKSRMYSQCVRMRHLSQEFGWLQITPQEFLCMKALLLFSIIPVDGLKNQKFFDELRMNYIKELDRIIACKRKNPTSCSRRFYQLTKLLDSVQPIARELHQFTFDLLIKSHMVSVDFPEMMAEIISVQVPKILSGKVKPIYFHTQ

## COCCN(CC1CCCN(Cc2ccccc2)C1)S(=O)(=O)c1ccc2ccccc2c1 (racemic) [compound 4, (±)N-((1-benzylpiperidin-3-yl)methyl)-N-(2-methoxyethyl)naphthalene-2-sulfonamide]
D2S(h)
  inhibition at 10 µM: 55.6%
[1]
  inhibition at 10 µM: -0.2%
[2]
  inhibition at 10 µM: -6.6%
5-HT2B(h)
  inhibition at 10 µM: 88.4%
